Test results reported in patent EP4810492A1, “NMT INHIBITOR, PREPARATION METHOD THEREFOR, AND USE THEREOF” (Nanjing Synnocare Pharmaceutical Technology Co., Ltd., priority 2023, dated 2025).
Read-outs that look alike come from different tables or passages of the source.

Key:
[1] = Plasma concentrations in mice following oral administration; details: ICR, mouse, po, 10 mg/kg
From the text: (§1) This study evaluated the plasma concentrations of the compounds of the present invention in mice. ICR mice were procured from JOINN Laboratories (Suzhou) Co., Ltd. At the initiation of dosing, the animals were 6-8 weeks old and weighed 18-25 g. Mice were housed in transparent plastic cages (400 mm*240 mm*200 mm). The animal facility maintained a 12-hour light/12-hour dark cycle (lights on 07:00-19:00) using fluorescent lighting. The dark period may be intermittently interrupted as required for study-related activities. Ambient temperature and relative humidity were controlled within 20-26 °C and 40-70%, respectively. Animals were fed certified rodent chow and provided with drinking water filtered and sterilized through an ultrapure water system. All animals had ad libitum access to water throughout the study. Animals were fasted for at least 12 hours prior to dosing, and food was restored 4 hours post-dosing.
(§2) Prior to dosing, body weights were recorded, and healthy animals with similar weights were selected and randomly assigned to groups (n = 3 per group) based on body weight. The compounds were formulated in a 0.5% aqueous carboxymethyl cellulose (CMC) solution and administered orally at a single dose of 10 mg/kg. Blood samples (≥0.2 mL) were collected via venipuncture at 1 h and 4 h post-dose into EDTA-K2 anticoagulant tubes. Tubes were gently inverted to mix, immediately placed in an ice-water bath, and rapidly centrifuged at 4,000 rpm for 10 min at 4 °C to separate plasma. Plasma was stored at -70 °C until analysis.
(§3) Calibration curve and QC plasma samples: Working solutions for the calibration curve and QC samples were prepared using 80% methanol in water (Thermo Fisher) as the diluent. To prepare plasma calibration standards and QC samples, 5 µL of each working solution was added to 45 µL of blank plasma and mixed. To the prepared calibration and QC samples, 300 µL of internal standard solution (tolbutamide at 8 µg/mL in acetonitrile, Thermo Fisher) was added. […] The supernatant was collected and analyzed by liquid chromatography-tandem mass spectrometry (LC-MS/MS; AB Sciex API 5000).
(§4) Plasma sample pretreatment: After thawing at room temperature, 50 µL of each plasma sample was mixed with 300 µL of the internal standard solution (tolbutamide at 8 µg/mL in acetonitrile, Thermo Fisher). […] The supernatant was collected and analyzed by LC-MS/MS (AB Sciex API 5000).
(§5) Raw chromatograms, concentrations, and accuracy data were generated using Analyst software version 1.6.3.

[2] = test system: MV-4-11 cells; test: Anti-proliferative activity against MV-4-11 cells (cell viability chemiluminescence); type: cell-based; details: MV4-11, 72 h, MV-4-11 human monocytic leukemia cells, three days of exposure
Procedure: This study utilized a cell proliferation assay to analyze the cytotoxicity of MV-4-11 human monocytic leukemia cells after three days of exposure to NMT1 inhibitors. The MV-4-11 cell line was purchased from Nanjing Cobuilder Biotechnology Co., Ltd., and cultured in IMDM medium (Viva cell) in an incubator (Thermo) at 37 °C with 5% CO2. In this experiment, NMT1 inhibitors were dissolved in DMSO to obtain 600 µM stock solutions. Dose-response solutions were prepared with a top endpoint compound concentration of 3 µM, followed by three-fold serial dilutions in DMSO, totaling eight data points. The final concentration of DMSO was 0.5%.
MV-4-11 cells were seeded into a white 96-well plate, 80 µL of cell suspension per well, containing 6000 MV-4-11 cells. The cell plate was placed in the CO2 incubator for overnight culture. Then, 20 µL of NMT1 inhibitor solutions at different concentrations were added to the wells. The 96-well plate was placed back into the incubator for three days. Another cell plate was prepared, and the signal was read on the day of drug addition to serve as the maximum value (Max value in the equation below) for data analysis. To this cell plate, 25 µL of cell viability chemiluminescence detection reagent was added per well, followed by incubation at room temperature for 10 minutes to stabilize the luminescence signal. A multi-label analyzer was used for reading.
The raw data were converted into inhibition rates using the equation (Sample - Min) / (Max - Min) * 100%. The IC50 values were then determined by fitting a four-parameter curve (using the "log(inhibitor) vs. response - Variable slope" model in GraphPad Prism). Min: wells treated with 0.5% DMSO; Max: Day 0 wells. Table 1 provides the inhibitory activity of the compounds of the invention on MV-4-11 cell proliferation. Table 1: Compound Inhibitory Activity against NMT1 Enzyme (IC50) and Anti-proliferative Activity against MV-4-11 Cell line (IC50)

[3] = target: T1, NMT1 enzyme (Homo sapiens, UniProt P30419); test: Inhibitory activity on NMT1 enzyme catalysis (fluorescence intensity assay); type: biochemical
T1 sequence (P30419 1-496): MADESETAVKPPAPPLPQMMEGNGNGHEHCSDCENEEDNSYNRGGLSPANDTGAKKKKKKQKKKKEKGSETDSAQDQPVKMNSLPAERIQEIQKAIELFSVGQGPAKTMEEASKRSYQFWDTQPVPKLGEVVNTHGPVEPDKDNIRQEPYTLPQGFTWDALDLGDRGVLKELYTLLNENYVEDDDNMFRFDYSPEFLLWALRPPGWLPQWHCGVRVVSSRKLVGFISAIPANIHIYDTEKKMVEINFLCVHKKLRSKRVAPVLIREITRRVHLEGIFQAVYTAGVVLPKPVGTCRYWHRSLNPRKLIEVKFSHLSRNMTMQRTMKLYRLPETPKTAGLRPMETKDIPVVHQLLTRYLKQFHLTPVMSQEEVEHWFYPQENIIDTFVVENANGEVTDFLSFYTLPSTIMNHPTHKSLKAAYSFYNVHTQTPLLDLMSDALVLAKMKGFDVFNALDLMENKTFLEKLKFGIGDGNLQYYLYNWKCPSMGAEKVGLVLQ
Procedure: This study evaluated the ability of the compounds of the invention to inhibit NMT1 catalytic activity in vitro. […] The final concentration of the NMT1 enzyme was 6 nM, the final concentration of CPM (Reactive thiol fluorescence probe, Invitrogen, D346) was 1 µM, the final concentration of HSPP60 SRC was 20 µM, and the final concentration of DMSO was 0.5%.
Compounds were dissolved in DMSO to obtain 10 mM stock solutions. Dose-response solutions were prepared with a top endpoint compound concentration of 3 mM, followed by three-fold serial dilutions in DMSO, totaling ten data points. […] Then, 2.5 µL of the NMT1 enzyme working solution was added to the 384-well assay plate, followed by incubation at 25 °C for 10 minutes. Subsequently, 5 µL of the CPM and myristoyl-CoA working solution was added, the plate was centrifuged at 1000 rpm for 1 minute, and then 2.5 µL of the HSPP60 SRC working solution was added to initiate the reaction. The reaction was incubated at 25 °C for 45 minutes.
The IC50 curve of the compounds was fitted using the software XLfit 5.5.0 according to the nonlinear regression equation.

[4] = mouse, in vivo, po, 10 mg/kg
From the text: as §1, §2, §3, §4, §5

[5] = 6 nM NMT1 enzyme, 1.25 µM myristoyl-CoA, 20 µM HSPP60 SRC peptide, 45 minutes at 25 °C, read-out: NMT1 (IC50)

| SMILES | concentration at 1 h [1] [ng/mL] | concentration at 4 h [1] [ng/mL] | concentration at 8 h [1] [ng/mL] | IC50 [2] [nM] | IC50 [3, 5] [nM] | IC50 ([2]; Homo sapiens) [nM] | IC50 [3] [nM] | 1 h Concentration [4] [ng/mL] | 4 h Concentration [4] [ng/mL] | 8 h Concentration [4] [ng/mL] |
| --- | --- | --- | --- | --- | --- | --- | --- | --- | --- | --- |
| Cc1nn(C)c(C)c1NS(=O)(=O)c1c(Cl)cc(-c2ccc3sc4c(c3c2)CNCC4)cc1Cl [Compound 1, 2,6-dichloro-4-(1,2,3,4-tetrahydrobenzo[4,5]thieno[3,2-c]pyridin-8-yl)-N-(1,3,5-trimethyl-1H-pyrazol-4-yl)benzenesulfonamide] | 1820 ± 493 | 1350 ± 15 | 723 ± 363 | 11.1 | 3.44 |  |  |  |  |  |
| Cc1c(NS(=O)(=O)c2c(Cl)cc(-c3ccc4sc5c(c4c3)CNCC5)cc2Cl)c(CC(F)(F)F)nn1C [Compound 17] | 5100 ± 2700 | 4080 ± 1970 | 3000 ± 1020 | 62.5 | 5.62 |  |  |  |  |  |
| Cc1c(NS(=O)(=O)c2c(Cl)cc(-c3ccc4sc5c(c4c3)CNCC5)cc2Cl)c(CC2CC2)nn1C [Compound 21] |  |  |  |  |  | 26.9 | 3.58 | 1900 ± 199 | 1114 ± 196 | 679 ± 220 |
| Cc1c(NS(=O)(=O)c2c(Cl)cc(-c3ccc4sc5c(c4c3)CCNC5)cc2Cl)c(CC(C)C)nn1C [Compound 54] | 3320 ± 1200 | 2310 ± 211 | 981 ± 343 | 38 | 4.73 |  |  |  |  |  |
| Cc1c(NS(=O)(=O)c2c(Cl)cc(-c3ccc4oc5c(c4c3)CNCC5)cc2Cl)c(CC#N)nn1C [Compound B18] | 2490 ± 1200 | 1670 ± 467 | 1040 ± 157 | 37 | 4.85 |  |  |  |  |  |
| Cc1c(NS(=O)(=O)c2c(Cl)cc(-c3ccc4oc5c(c4c3)CNCC5)cc2Cl)c(CC2CC2)nn1C [Compound B26] | 4630 ± 2020 | 3380 ± 575 | 2150 ± 206 | 11.4 | 2.87 |  |  |  |  |  |
| Cc1c(NS(=O)(=O)c2c(Cl)cc(N3CCc4sc5c(c4C3)CNCC5)cc2Cl)c(CC(F)(F)F)nn1C [Compound B35] |  |  |  |  |  | 7.48 | 1.97 | 2267 ± 1084 | 1270 ± 384 | 684 ± 239 |
| Cc1c(NS(=O)(=O)c2ccc(-c3ccc4oc5c(c4c3)CNCC5)cc2Cl)c(CC(F)(F)F)nn1C [Compound B39] | 9760 ± 410 | 8530 ± 1170 | 6730 ± 1450 | 40.1 | 4.76 |  |  |  |  |  |
| Cc1c(NS(=O)(=O)c2c(Cl)cc(-c3ccc4sc5c(c4c3)CNCC5)cc2Cl)c(CCF)nn1C [Compound B43] | 3220 ± 650 | 1710 ± 224 | 1570 ± 104 | 3.42 | 1.79 |  |  |  |  |  |
| Cc1c(NS(=O)(=O)c2c(Cl)cc(-c3ccc4sc5c(c4c3)CCNC5)cc2Cl)c(CCF)nn1C [Compound B44] |  |  |  | 9.27 | 2.08 |  |  |  |  |  |
| Cc1c(NS(=O)(=O)c2c(Cl)cc(-c3ccc4oc5c(c4c3)CNCC5)cc2Cl)c(CCF)nn1C [Compound B45] | 5040 ± 1820 | 3800 ± 621 | 3730 ± 1280 | 9.51 | 1.94 |  |  |  |  |  |
| Cc1c(NS(=O)(=O)c2c(Cl)cc(N3CCc4sc5c(c4C3)CNCC5)cc2Cl)c(CCF)nn1C [Compound B46] |  |  |  | 3.61 | 2.03 |  |  |  |  |  |
| Cc1c(NS(=O)(=O)c2ccc(-c3ccc4sc5c(c4c3)CNCC5)cc2Cl)c(CCF)nn1C [Compound B48] | 2960 ± 340 | 1400 ± 240 | 447 ± 71 | 3.26 | 1.89 |  |  |  |  |  |
| Cc1c(NS(=O)(=O)c2ccc(-c3ccc4sc5c(c4c3)CCNC5)cc2Cl)c(CCF)nn1C [Compound B49] |  |  |  | 19.5 | 2.37 |  |  |  |  |  |
| Cc1c(NS(=O)(=O)c2ccc(-c3ccc4oc5c(c4c3)CNCC5)cc2Cl)c(CCF)nn1C [Compound B50] |  |  |  | 17.9 | 3.95 |  |  |  |  |  |
| Cc1c(NS(=O)(=O)c2ccc(-c3ccc4sc5c(c4c3)CNCC5)cc2)c(CCF)nn1C [Compound B51] |  |  |  | 6.05 | 2.51 |  |  |  |  |  |
| Cc1c(NS(=O)(=O)c2ccc(-c3ccc4sc5c(c4c3)CCNC5)cc2)c(CCF)nn1C [Compound B52] | 3630 ± 990 | 2180 ± 185 | 504 ± 71 | 17.3 | 3.88 |  |  |  |  |  |
| Cc1c(NS(=O)(=O)c2ccc(-c3ccc4oc5c(c4c3)CNCC5)cc2)c(CCF)nn1C [Compound B53] | 2480 ± 626 | 1020 ± 361 | 399 ± 264 | 27.2 | 4.02 |  |  |  |  |  |
| Cc1c(NS(=O)(=O)c2c(Cl)cc(-c3ccc4sc5c(c4c3)CNCC5)cc2Cl)c(CC(F)F)nn1C [Compound B54] |  |  |  | 5.45 | 1.79 |  |  |  |  |  |
| Cc1c(NS(=O)(=O)c2c(Cl)cc(-c3ccc4sc5c(c4c3)CCNC5)cc2Cl)c(CC(F)F)nn1C [Compound B55] |  |  |  | 21.1 | 3.72 |  |  |  |  |  |
| Cc1c(NS(=O)(=O)c2c(Cl)cc(-c3ccc4oc5c(c4c3)CNCC5)cc2Cl)c(CC(F)F)nn1C [Compound B56] |  |  |  | 19.6 | 3.49 |  |  |  |  |  |
| Cc1c(NS(=O)(=O)c2c(Cl)cc(N3CCc4sc5c(c4C3)CNCC5)cc2Cl)c(CC(F)F)nn1C [Compound B57] |  |  |  | 11.8 | 2.95 |  |  |  |  |  |
| Cc1c(NS(=O)(=O)c2c(Cl)cc(N3CCc4oc5c(c4C3)CCNC5)cc2Cl)c(CC(F)F)nn1C [Compound B58] |  |  |  | 8.97 | 2.08 |  |  |  |  |  |
| Cc1c(NS(=O)(=O)c2ccc(-c3ccc4sc5c(c4c3)CNCC5)cc2Cl)c(CC(F)F)nn1C [Compound B59] | 1870 ± 389 | 846 ± 698 | 149 ± 114 | 5.3 | 1.93 |  |  |  |  |  |
| Cc1c(NS(=O)(=O)c2ccc(-c3ccc4oc5c(c4c3)CNCC5)cc2Cl)c(CC(F)F)nn1C [Compound B61] |  |  |  | 27 | 5.21 |  |  |  |  |  |
| Cc1c(NS(=O)(=O)c2ccc(-c3ccc4sc5c(c4c3)CNCC5)cc2)c(CC(F)F)nn1C [Compound B62] |  |  |  | 7.48 | 2.47 |  |  |  |  |  |
| Cc1c(NS(=O)(=O)c2ccc(-c3ccc4sc5c(c4c3)CCNC5)cc2)c(CC(F)F)nn1C [Compound B63] |  |  |  | 20.4 | 3.67 |  |  |  |  |  |
| Cc1c(NS(=O)(=O)c2ccc(-c3ccc4oc5c(c4c3)CNCC5)cc2)c(CC(F)F)nn1C [Compound B64] | 1660 ± 366 | 795 ± 127 | 260 ± 63 | 30.2 | 4.08 |  |  |  |  |  |
